The results in this text go back to US20040253665A1, “Novel peptide-producing enzyme, microbe producing the enzyme and method for dipeptide synthesis using them” (AJINOMOTO CO., INC., priority 2002, published 2004).

Residues, ends and D or L forms follow the SMILES beside them. *: point of attachment. Boc = CC(C)(C)OC(=O)*

This experiment has as its system peptide-producing enzyme (Mono S fraction) from Empedobacter brevis strain FERM BP-8113. The experiment is described as follows: Enzyme substrate specificity (1)-(10), (13), (14). The class given is biochemical. Further details: key: +: those for which production was confirmed but which were unable to be quantified due to the absence of a standard; a trace amount. The settings on record: carboxy component 100 mM, amine component 150 mM, 0.1 unit enzyme, 25° C., reaction time 2 hr. An excerpt:
Ester specificity was examined in the case of using L-amino acid ester for the carboxy component. […] The amounts of L-Ala-L-Gln produced in this reaction are shown in Table 4 (HCl represents hydrochloride in Table 4). Peptide production was examined in the case of using L-alanine methyl ester for the carboxy component and using various L-amino acids for the amine component. […] (The “+” mark indicates those peptides for which production was confirmed but which were unable to be quantified due to the absence of a standard, while “tr” indicates a trace amount.) Peptide production was examined in the case of using various types of L-amino acid methyl esters for the carboxy component and using L-glutamine for the amine component. […] Peptide production was examined in the case of using various L-amino acid methyl esters for the carboxy component and various L-amino acids for the amine component. […] (The “tr” indicates a trace amount.) Furthermore, Tween-80 was added to the reaction system to a final concentration of 0.1% in the case of using L-Trp-OMe. (The “+” mark indicates those peptides for which production was confirmed but which were unable to be quantified due to the absence of a standard.) […] (The “tr” indicates a trace amount.) Peptide production was examined using various L-amino acid amides for the carboxy component, and various L-amino acids for the amine component. […] Peptide production was examined in the case of using various L-alanine methyl esters for the carboxy component and C-protected L-amino acids for the amine component. […] Peptide production was examined in the case of using various amino acid methyl esters for the carboxy component and methylamine for the amine component. […] Peptide production was examined in the case of using β-amino acid ester for the carboxy component or β-amino acid for the amine component. […] (The “tr” indicates a trace amount.) Oligopeptide production was examined in the case of using L-amino acid ester for the carboxy component and peptide for the amine component. […] Substrate specificity was additionally assessed using the same enzyme fraction as that used in Example 5. […] (A “+” mark indicates those for which production was confirmed but which were unable to be quantified due to the absence of a standard, while “tr” indicates a trace amount). Substrate specificity with respect to oligopeptide production was assessed using the same enzyme fraction as Example 26. […] (A “+” mark indicates those for which production was confirmed but which were unable to be quantified due to the absence of a standard, while “tr” indicates a trace amount). It should be noted that hydrochlorides were used for all of the carboxy components.

In the case of `CC(C)(C)OC(=O)NCCCC[C@H](N)C(=O)N[C@@H](CCC(N)=O)C(=O)O` [H-Lys(Boc)-Gln-OH] (H-Lys(Boc)-Gln-OH), the “Produced peptide (mM)” value was “+”.
